Measurements: article PMC4134960 (Pharmacological research : the official journal of the …, 2014)

Key:
[1] = ref Moreno-Sanz et al., 2013; cited from earlier work
[2] = tested on: wild-type MDCKII cells; test: Transepithelial transport in monolayers of wild-type MDCKII cells
[3] = target: T1, murine Abcg2 (Mus musculus, UniProt Q7TMS5); test: Transepithelial transport in monolayers of MDCKII cells over-expressing Abcg2; type: in vitro ADME
T1 sequence (Q7TMS5 1-657): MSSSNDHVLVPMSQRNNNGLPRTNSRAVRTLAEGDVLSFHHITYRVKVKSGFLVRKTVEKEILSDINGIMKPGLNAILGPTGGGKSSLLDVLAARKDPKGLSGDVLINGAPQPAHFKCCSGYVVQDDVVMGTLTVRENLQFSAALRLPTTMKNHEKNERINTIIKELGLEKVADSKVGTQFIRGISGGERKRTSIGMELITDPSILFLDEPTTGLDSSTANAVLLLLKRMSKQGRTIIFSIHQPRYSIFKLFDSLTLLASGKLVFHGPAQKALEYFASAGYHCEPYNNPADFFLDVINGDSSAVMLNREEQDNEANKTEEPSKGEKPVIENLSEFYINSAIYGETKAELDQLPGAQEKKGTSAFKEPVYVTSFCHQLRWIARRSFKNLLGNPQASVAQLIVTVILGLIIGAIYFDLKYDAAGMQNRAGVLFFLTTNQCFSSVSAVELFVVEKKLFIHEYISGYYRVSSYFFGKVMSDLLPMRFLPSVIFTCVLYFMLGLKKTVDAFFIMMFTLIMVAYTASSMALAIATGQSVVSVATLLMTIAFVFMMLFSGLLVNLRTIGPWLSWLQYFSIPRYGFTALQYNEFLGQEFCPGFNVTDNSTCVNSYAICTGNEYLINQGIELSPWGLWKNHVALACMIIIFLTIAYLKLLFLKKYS

[4] = target: human ABCB1 (Homo sapiens, UniProt P08183); test: Transepithelial transport in monolayers of MDCKII cells over-expressing ABCB1; details: for A to B transport (percentage of drug appearing in the opposite compartment) / B to A transport (percentage of drug appearing in the opposite compartment) / Ratio BA/AB (relative transport ratio): MDCKII over-expressing ABCB1, after 4h, 5 μM (compound 8: 1 μM); for Vectorial transport by ABCB1 (in words): MDCKII transduced with human ABCB1
[5] = target: T2, FAAH (Mus musculus, UniProt O08914); details: inhibition of brain FAAH activity after systemic administration in mice; ref Moreno-Sanz et al., 2013; cited from earlier work
T2 sequence (O08914 1-579): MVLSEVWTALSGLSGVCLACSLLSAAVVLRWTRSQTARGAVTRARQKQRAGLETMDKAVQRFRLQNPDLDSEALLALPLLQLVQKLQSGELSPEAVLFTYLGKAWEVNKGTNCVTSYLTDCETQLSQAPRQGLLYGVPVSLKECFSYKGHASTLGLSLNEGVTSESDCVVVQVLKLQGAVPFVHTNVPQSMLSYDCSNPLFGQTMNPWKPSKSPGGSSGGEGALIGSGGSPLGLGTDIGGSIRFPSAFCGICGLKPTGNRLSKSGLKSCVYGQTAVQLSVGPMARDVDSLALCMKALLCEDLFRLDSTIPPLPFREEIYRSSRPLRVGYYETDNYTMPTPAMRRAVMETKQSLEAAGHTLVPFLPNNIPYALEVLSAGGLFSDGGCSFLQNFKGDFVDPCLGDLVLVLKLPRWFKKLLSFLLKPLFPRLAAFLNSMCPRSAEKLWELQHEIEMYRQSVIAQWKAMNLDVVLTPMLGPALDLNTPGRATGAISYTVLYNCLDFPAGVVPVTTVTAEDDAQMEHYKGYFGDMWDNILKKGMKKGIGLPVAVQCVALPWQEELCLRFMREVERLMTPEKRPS

[6] = Transepithelial transport in monolayers of wild-type MDCKII cells; details: dog, MDCK, Ratio BA/AB (relative transport ratio), after 4h, 5 μM (compound 8: 1 μM)
[7] = target: T3, Abcg2 (Mus musculus, UniProt Q7TMS5); test: Transepithelial transport in monolayers of MDCKII cells over-expressing Abcg2; type: in vitro ADME, murine; details: mouse, Ratio BA/AB (relative transport ratio), MDCKII over-expressing Abcg2, after 4h, 5 μM (compound 8: 1 μM)
T3 sequence (Q7TMS5 1-657): T1 sequence (Q7TMS5 1-657)

[8] = after 4h, 5 μM (compound 8: 1 μM)
[9] = MDCKII over-expressing Abcg2, after 4h, 5 μM (compound 8: 1 μM)

Chain of human ABCB1 (P08183 whole entry): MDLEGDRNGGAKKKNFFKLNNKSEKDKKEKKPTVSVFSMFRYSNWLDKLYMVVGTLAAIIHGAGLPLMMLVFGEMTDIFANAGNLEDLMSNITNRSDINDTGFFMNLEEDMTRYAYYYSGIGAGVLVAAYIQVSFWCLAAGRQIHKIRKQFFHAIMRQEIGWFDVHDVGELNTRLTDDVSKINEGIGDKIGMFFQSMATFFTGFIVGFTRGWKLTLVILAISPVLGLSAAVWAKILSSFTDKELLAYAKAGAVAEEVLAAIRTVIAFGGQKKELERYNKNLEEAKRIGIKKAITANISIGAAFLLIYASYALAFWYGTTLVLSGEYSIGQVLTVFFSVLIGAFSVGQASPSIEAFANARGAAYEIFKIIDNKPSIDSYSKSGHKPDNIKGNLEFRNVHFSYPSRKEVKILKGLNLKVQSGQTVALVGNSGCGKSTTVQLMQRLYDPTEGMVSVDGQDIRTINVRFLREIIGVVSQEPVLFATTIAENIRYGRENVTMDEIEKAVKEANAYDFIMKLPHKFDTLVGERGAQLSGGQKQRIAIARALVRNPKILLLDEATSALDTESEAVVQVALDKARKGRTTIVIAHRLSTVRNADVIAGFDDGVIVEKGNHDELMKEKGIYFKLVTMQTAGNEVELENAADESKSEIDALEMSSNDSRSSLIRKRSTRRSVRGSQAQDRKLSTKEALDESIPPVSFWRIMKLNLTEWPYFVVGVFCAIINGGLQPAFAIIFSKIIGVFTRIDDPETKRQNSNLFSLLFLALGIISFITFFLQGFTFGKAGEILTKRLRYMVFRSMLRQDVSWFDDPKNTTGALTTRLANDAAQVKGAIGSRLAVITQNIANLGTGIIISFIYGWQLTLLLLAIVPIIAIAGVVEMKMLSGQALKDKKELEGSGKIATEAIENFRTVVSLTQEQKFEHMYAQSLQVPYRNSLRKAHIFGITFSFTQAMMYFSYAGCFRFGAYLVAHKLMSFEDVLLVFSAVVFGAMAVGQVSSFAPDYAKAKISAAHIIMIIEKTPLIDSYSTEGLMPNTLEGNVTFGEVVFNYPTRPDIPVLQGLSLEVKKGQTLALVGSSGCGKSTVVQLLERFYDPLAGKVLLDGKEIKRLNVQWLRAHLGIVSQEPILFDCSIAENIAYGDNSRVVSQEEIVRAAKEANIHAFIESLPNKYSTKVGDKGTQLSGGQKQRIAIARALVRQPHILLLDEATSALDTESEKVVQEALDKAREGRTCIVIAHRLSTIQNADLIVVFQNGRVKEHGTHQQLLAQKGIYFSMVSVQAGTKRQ

CC(=O)c1cccc(-c2cc(OC(=O)NC3CCCCC3)ccc2O)c1 [Compound 3]
PSA (polar surface area) [1]: 62 Å^2
A to B transport (percentage of drug appearing in the opposite compartment) [2, 8]: 39.4 ± 0.54%
B to A transport (percentage of drug appearing in the opposite compartment) [2, 8]: 46.8 ± 2.73%
Transport substrate for Abcg2 (in words) ([3]; MDCKII over-expressing Abcg2): did not behave as a transport substrate for Abcg2
A to B transport (percentage of drug appearing in the opposite compartment) [3, 9]: 24.5 ± 2.39 %
B to A transport (percentage of drug appearing in the opposite compartment) [3, 9]: 30.5 ± 0.75%
Ratio BA/AB (relative transport ratio) [3, 9]: 1.25 ± 0.13
A to B transport (percentage of drug appearing in the opposite compartment) [4]: 39.8 ± 1.88%
B to A transport (percentage of drug appearing in the opposite compartment) [4]: 57.6 ± 7.90%
Ratio BA/AB (relative transport ratio) [4]: 1.44 ± 0.13
Vectorial transport by ABCB1 (in words) [4]: no significant vectorial transport
Brain ID50 [5]: <1 mg/kg

COc1ccc(OC(=O)NC2CCCCC2)cc1-c1cccc(C(N)=O)c1 [Compound 7]
PSA (polar surface area) [1]: 74 Å^2
A to B transport (percentage of drug appearing in the opposite compartment) [2, 8]: 29.3 ± 0.44%
B to A transport (percentage of drug appearing in the opposite compartment) [2, 8]: 37.1 ± 1.48%
A to B transport (percentage of drug appearing in the opposite compartment) [3, 9]: 7.29 ± 1.30 %
B to A transport (percentage of drug appearing in the opposite compartment) [3, 9]: 98.8 ± 16.6%
A to B transport (percentage of drug appearing in the opposite compartment) [4]: 21.6 ± 0.55%
B to A transport (percentage of drug appearing in the opposite compartment) [4]: 45.1 ± 3.61%
Ratio BA/AB (relative transport ratio) [4]: 2.08 ± 0.11
Vectorial transport by ABCB1 (in words) [4]: no significant vectorial transport

O=C(NC1CCCCC1)Oc1ccc(O)c(-c2cccc(C(=O)O)c2)c1 [Compound 4]
PSA (polar surface area) [1]: 77 Å^2
Translocation in apical or basolateral direction (in words) [2]: minimal translocation in either the apical or basolateral direction
A to B transport (percentage of drug appearing in the opposite compartment) [2, 8]: 4.93 ± 0.88%
B to A transport (percentage of drug appearing in the opposite compartment) [2, 8]: 5.21 ± 0.42%
Brain ID50 [5]: 12 mg/kg

COc1ccc2c3c([nH]c2c1)[C@H](CC(C)C)N1C(=O)[C@H](CCC(=O)OC(C)(C)C)NC(=O)[C@@H]1C3 [Ko143, reference compound]
Effect of inhibitor on translocation of all compounds (in words) ([3]; MDCKII over-expressing Abcg2, Ko143 1 μM): blocked

CNC(=O)c1cccc(-c2cc(OC(=O)NC3CCCCC3)ccc2O)c1 [Compound 1]
PSA (polar surface area) [1]: 73 Å^2
A to B transport (percentage of drug appearing in the opposite compartment) [2, 8]: 21.7 ± 0.96%
B to A transport (percentage of drug appearing in the opposite compartment) [2, 8]: 48.1 ± 2.33%
A to B transport (percentage of drug appearing in the opposite compartment) [3, 9]: 6.99 ± 0.99 %
B to A transport (percentage of drug appearing in the opposite compartment) [3, 9]: 69.8 ± 16.9%
A to B transport (percentage of drug appearing in the opposite compartment) [4]: 8.55 ± 1.79%
B to A transport (percentage of drug appearing in the opposite compartment) [4]: 67.4 ± 14.5%

N.NC(=O)c1cccc(-c2cc(OC(=O)NC3CCCCC3)ccc2OS(=O)(=O)O)c1 [Compound 9]
PSA (polar surface area) [1]: 117 Å^2
Translocation in apical or basolateral direction (in words) [2]: minimal translocation in either the apical or basolateral direction
A to B transport (percentage of drug appearing in the opposite compartment) [2, 8]: 7.92 ± 0.41%
B to A transport (percentage of drug appearing in the opposite compartment) [2, 8]: 7.49 ± 0.39%
Brain ID50 [5]: >75 mg/kg

CN(C)C(=O)c1cccc(-c2cc(OC(=O)NC3CCCCC3)ccc2O)c1 [Compound 2]
PSA (polar surface area) [1]: 65 Å^2
A to B transport (percentage of drug appearing in the opposite compartment) [2, 8]: 25.6 ± 1.96%
B to A transport (percentage of drug appearing in the opposite compartment) [2, 8]: 43.1 ± 4.48%
A to B transport (percentage of drug appearing in the opposite compartment) [3, 9]: 6.95 ± 0.42 %
B to A transport (percentage of drug appearing in the opposite compartment) [3, 9]: 91.0 ± 12.7%
A to B transport (percentage of drug appearing in the opposite compartment) [4]: 8.86 ± 0.95%
B to A transport (percentage of drug appearing in the opposite compartment) [4]: 58.6 ± 3.85%
Ratio BA/AB (relative transport ratio) [4]: 6.65 ± 0.36
Brain ID50 [5]: 5 mg/kg

Cc1ccc(OC(=O)NC2CCCCC2)cc1-c1cccc(C(N)=O)c1 [Compound 8, cyclohexylcarbamic acid 3′-carbamoyl-6-methylbiphenyl-3-yl ester]
PSA (polar surface area) [1]: 66 Å^2
efflux ratio at 4 h [6]: ~1
A to B transport (percentage of drug appearing in the opposite compartment) [2, 8]: 26.0 ± 1.52%
B to A transport (percentage of drug appearing in the opposite compartment) [2, 8]: 27.3 ± 3.8%
Ratio BA/AB (relative transport ratio) [2, 8]: 1.06 ± 0.15
efflux ratio at 4 h [7]: ≥ 10
A to B transport (percentage of drug appearing in the opposite compartment) [3, 9]: 5.59 ± 0.58 %
B to A transport (percentage of drug appearing in the opposite compartment) [3, 9]: 64.8 ± 4.87%
A to B transport (percentage of drug appearing in the opposite compartment) [4]: 20.7 ± 1.00%
B to A transport (percentage of drug appearing in the opposite compartment) [4]: 35.8 ± 0.43%
Vectorial transport by ABCB1 (in words) [4]: no significant vectorial transport
